Source: patent US20250082674A1, “METHODS OF TREATING COPPER METABOLISM-ASSOCIATED DISEASES OR DISORDERS” (priority 2021, published 2025)
Read-outs that look alike come from different tables or passages of the source.

Test system: patients with Wilson disease (WD)
Details: for Transformed CGI-I Mean (SD): scores −3 (Very much improved) to 3 (Very much worse)
Description: Dose modification, if required, was made as described herein.

Bis-choline tetrathiomolybdate [BC-TTM]
CGI-S (1 to 7, 1 is normal) Mean (Baseline): 2.7 | UWDRS Part II (0-40) Mean (Baseline): 3.4 | UWDRS Part III (0-175) Mean (Baseline): 13.99 | UWDRS Part III functional subscale (0-10) Mean (Baseline): 1.390 | UWDRS Part III-arising from chair (0-4) Mean (Baseline): 0.3 | UWDRS Part III-gait (0-4) Mean (Baseline): 1.40 | UWDRS Part III-handwriting (0-4) Mean (Baseline): 0.6 | UWDRS Part III-speech (0-4) Mean (Baseline): 0.8 | key secondary endpoints (UWDRS, CGI) versus baseline (Study 301 extension period, interim): statistically significant improvements from baseline | CGI-S (1 to 7, 1 is normal) LSM (SE) change from baseline (Week 24): −0.3 (0.07) | CGI-S (1 to 7, 1 is normal) Mean (SD) change from baseline (Week 24): −0.2 (0.79) | UWDRS Part II (0-40) LSM (SE) change from baseline (Week 24): −0.4 (0.20) | UWDRS Part II (0-40) Mean (SD) change from baseline (Week 24): −0.3 (1.99) | UWDRS Part III (0-175) LSM (SE) change from baseline (Week 24): −1.32 (0.619) | UWDRS Part III (0-175) Mean (SD) change from baseline (Week 24): −0.74 (5.937) | UWDRS Part III functional subscale (0-10) LSM (SE) change from baseline (Week 24): −0.158 (0.0547) | UWDRS Part III functional subscale (0-10) Mean (SD) change from baseline (Week 24): −0.139 (0.4540) | UWDRS Part III-arising from chair (0-4) LSM (SE) change from baseline (Week 24): −0.1 (0.03) | UWDRS Part III-arising from chair (0-4) Mean (SD) change from baseline (Week 24): 0.0 (0.38) | UWDRS Part III-gait (0-4) LSM (SE) change from baseline (Week 24): −0.21 (0.100) | UWDRS Part III-gait (0-4) Mean (SD) change from baseline (Week 24): −0.17 (1.113) | UWDRS Part III-handwriting (0-4) LSM (SE) change from baseline (Week 24): 0.0 (0.04) | UWDRS Part III-handwriting (0-4) Mean (SD) change from baseline (Week 24): −0.1 (0.38) | UWDRS Part III-speech (0-4) LSM (SE) change from baseline (Week 24): −0.1 (0.04) | UWDRS Part III-speech (0-4) Mean (SD) change from baseline (Week 24): −0.1 (0.38) | Transformed CGI-I Mean (SD) (Week 24): −0.5 (0.82) | CGI-S (1 to 7, 1 is normal) LSM (SE) change from baseline (Week 48): −0.4 (0.07) | CGI-S (1 to 7, 1 is normal) Mean (SD) change from baseline (Week 48): −0.5 (0.94) | UWDRS Part II (0-40) LSM (SE) change from baseline (Week 48): −0.7 (0.21) | UWDRS Part II (0-40) Mean (SD) change from baseline (Week 48): −0.7 (2.70) | UWDRS Part III (0-175) LSM (SE) change from baseline (Week 48): −2.47 (0.638) | UWDRS Part III (0-175) Mean (SD) change from baseline (Week 48): −2.32 (7.735) | UWDRS Part III functional subscale (0-10) LSM (SE) change from baseline (Week 48): −0.230 (0.0569) | UWDRS Part III functional subscale (0-10) Mean (SD) change from baseline (Week 48): −0.235 (0.6976) | UWDRS Part III-arising from chair (0-4) LSM (SE) change from baseline (Week 48): 0.0 (0.04) | UWDRS Part III-arising from chair (0-4) Mean (SD) change from baseline (Week 48): 0.0 (0.40) | UWDRS Part III-gait (0-4) LSM (SE) change from baseline (Week 48): −0.26 (0.104) | UWDRS Part III-gait (0-4) Mean (SD) change from baseline (Week 48): −0.18 (1.262) | UWDRS Part III-handwriting (0-4) LSM (SE) change from baseline (Week 48): −0.1 (0.04) | UWDRS Part III-handwriting (0-4) Mean (SD) change from baseline (Week 48): −0.2 (0.59) | UWDRS Part III-speech (0-4) LSM (SE) change from baseline (Week 48): −0.1 (0.04) | UWDRS Part III-speech (0-4) Mean (SD) change from baseline (Week 48): −0.1 (0.53) | Transformed CGI-I Mean (SD) (Week 48): −0.7 (0.91) | CGI-S (1 to 7, 1 is normal) LSM (SE) change from baseline (Week 72): −0.5 (0.07) | CGI-S (1 to 7, 1 is normal) Mean (SD) change from baseline (Week 72): −0.6 (1.10) | UWDRS Part II (0-40) LSM (SE) change from baseline (Week 72): −1.0 (0.22) | UWDRS Part II (0-40) Mean (SD) change from baseline (Week 72): −1.2 (2.92) | UWDRS Part III (0-175) LSM (SE) change from baseline (Week 72): −3.47 (0.672) | UWDRS Part III (0-175) Mean (SD) change from baseline (Week 72): −3.27 (9.840) | UWDRS Part III functional subscale (0-10) LSM (SE) change from baseline (Week 72): −0.253 (0.0604) | UWDRS Part III functional subscale (0-10) Mean (SD) change from baseline (Week 72): −0.290 (0.8908) | UWDRS Part III-arising from chair (0-4) LSM (SE) change from baseline (Week 72): −0.1 (0.04) | UWDRS Part III-arising from chair (0-4) Mean (SD) change from baseline (Week 72): −0.1 (0.57) | UWDRS Part III-gait (0-4) LSM (SE) change from baseline (Week 72): −0.15 (0.110) | UWDRS Part III-gait (0-4) Mean (SD) change from baseline (Week 72): −0.12 (1.321) | UWDRS Part III-handwriting (0-4) LSM (SE) change from baseline (Week 72): −0.2 (0.05) | UWDRS Part III-handwriting (0-4) Mean (SD) change from baseline (Week 72): −0.2 (0.59) | UWDRS Part III-speech (0-4) LSM (SE) change from baseline (Week 72): −0.1 (0.04) | UWDRS Part III-speech (0-4) Mean (SD) change from baseline (Week 72): −0.1 (0.51) | Transformed CGI-I Mean (SD) (Week 72): −0.5 (0.86) | CGI-S (1 to 7, 1 is normal) LSM (SE) change from baseline (Week 96): −0.5 (0.09) | CGI-S (1 to 7, 1 is normal) Mean (SD) change from baseline (Week 96): −0.6 (0.97) | UWDRS Part II (0-40) LSM (SE) change from baseline (Week 96): −1.1 (0.30) | UWDRS Part II (0-40) Mean (SD) change from baseline (Week 96): −1.1 (3.61) | UWDRS Part III (0-175) LSM (SE) change from baseline (Week 96): −4.77 (0.865) | UWDRS Part III (0-175) Mean (SD) change from baseline (Week 96): −4.09 (10.827) | UWDRS Part III functional subscale (0-10) LSM (SE) change from baseline (Week 96): −0.386 (0.0801) | UWDRS Part III functional subscale (0-10) Mean (SD) change from baseline (Week 96): −0.503 (0.9648) | UWDRS Part III-arising from chair (0-4) LSM (SE) change from baseline (Week 96): −0.1 (0.05) | UWDRS Part III-arising from chair (0-4) Mean (SD) change from baseline (Week 96): −0.2 (0.76) | UWDRS Part III-gait (0-4) LSM (SE) change from baseline (Week 96): −0.12 (0.143) | UWDRS Part III-gait (0-4) Mean (SD) change from baseline (Week 96): −0.11 (1.390) | UWDRS Part III-handwriting (0-4) LSM (SE) change from baseline (Week 96): −0.3 (0.06) | UWDRS Part III-handwriting (0-4) Mean (SD) change from baseline (Week 96): −0.4 (0.66) | UWDRS Part III-speech (0-4) LSM (SE) change from baseline (Week 96): −0.2 (0.05) | UWDRS Part III-speech (0-4) Mean (SD) change from baseline (Week 96): −0.2 (0.57) | Transformed CGI-I Mean (SD) (Week 96): −0.5 (0.98) | CGI-S (1 to 7, 1 is normal) LSM (SE) change from baseline (Week 120): −0.7 (0.11) | CGI-S (1 to 7, 1 is normal) Mean (SD) change from baseline (Week 120): −0.6 (1.06) | UWDRS Part II (0-40) LSM (SE) change from baseline (Week 120): −1.7 (0.35)
